Measurements reported in US20120264793A1, “Pharmaceutical Use of 2',2-Bis-Thiazole Non-Nucleoside Compounds as Hepatitis C Virus Inhibitor” (Shanghai Institute of Materia Medica, Chinese Academy of …, priority 2009, published 2012).
Where two headings read alike, the source gives them in different places.

What was measured:
[1] = system: Huh7.5.1 cells; test: in vitro; type: cell-based
Description: (§1) The anti-HCV activity assay was performed by using Huh7.5.1 cells (presented by WUHAN INSTITUTE of VIROLOGY, CHINESE ACADEMY OF SCIENCES) infected by HCV (J399E) inserted with enhanced green fluorescent protein (EGFP). The variation of the green fluorescence intensity was recorded on a microplate reader and cytotoxicity was measured at the same time, so as to evaluate the influence of the compound on the replication activity of HCV.
(§2) Compounds to be tested were dissolved in DMSO to prepare a stock solution before the test. Upon using, the stock solution was diluted to a desired concentration with DMEM (Dulbecco's Modified Eagle Media, purchased from GibcoBRL company (Life Technologies, Grand Island, N.Y., USA)) containing 10% FBS (fetal bovine serum, purchased from Hyclone company (Logan, Utah, USA)). The final concentration of DMSO for cell culture was less than 0.25% (V/V, Volume to Volume), and such DMSO concentration would not affect the growth of cells.
(§3) Huh7.5.1 cells (10% FBS, DMEM) at 10^5 cells/ml were inoculated on a 96-well plate (Costar 3904) with 100 μl per well. 24 h later, the supernatant of the culture media was sucked out, and 50 μl of virus supernatant with MOI=0.1 was added. 8 h later, 50 μl of the testing compound solution was added and 100 μl of culture media was supplemented. After incubation for 72 h, the supernatant was sucked out, and read on a fluorescent microplate reader (Ex=488 nm, Em=516 nm). Then each well was added with 20 μl of MTT (5 mg/ml) and additional 50 μl of culture media. 4 h later, 100 μl of MTT lysis solution was added. 6 h later, reading was performed at a wavelength of 570 nm.

[2] = system: HCV (J399E) inserted with enhanced green fluorescent protein (EGFP); test: microbe, parasite or virus in culture; type: cell-based, Hepatitis C Virus; settings: for IC50: read-out: IC50 (concentration at which 50% of the replication of HCV was inhibited); for SI (bioactivity selective index): from CC50 and IC50 in Huh7.5.1 cells, SI greater than 2 means effective
Description: The in vitro anti-HCV activity assay of the 2′,2-bis-thiazole non-nucleoside compounds at cellular level was performed by using an anti-HCV activity assay protocol recognized by one skilled in the art.
The variation of the green fluorescence intensity was recorded on a microplate reader and cytotoxicity was measured at the same time, so as to evaluate the influence of the compound on the replication activity of HCV.
as §2, with “USA)).” for “USA)). The final concentration of DMSO for cell culture was less than 0.25% (V/V, Volume to Volume), and such DMSO concentration would not affect the growth of cells.”
Positive control: ribavirin (purchased from Sigma/Aldrich). It was dissolved in DMSO to prepare a stock solution and stored at −20° C. before use, and diluted to a desired concentration upon using.
as §3

[3] = in vitro; type: cell-based; settings: human
Description: as §1, §2, §3

[4] = HCV (J399E)-EGFP infected Huh7.5.1 cells, MOI=0.1, 72 h incubation
[5] = Hepatitis C virus, Huh-7.5.1, 72 h

In the case of `CC(C)Cc1sc(-c2nccs2)nc1C(=O)Nc1ccccc1` [Compound C343], the CC50 [1] is reported as greater than 100 µM and the IC50 [2, 4] is reported as 19.1 µM.
For `CC(C)Cc1sc(-c2nccs2)nc1CNC(=O)c1nc(-c2nccs2)sc1CC(C)C` [Compound C503], the CC50 at 72 h [3] was greater than 100 µM, the IC50 [2, 5] was 1.4 µM and the “SI (bioactivity selective index)” value [2] was greater than 71.
With `CC(C)Cc1sc(-c2nccs2)nc1C(=O)NCc1ccccc1` [Compound C357] the CC50 at 72 h [3] was greater than 33.3 µM, the IC50 [2, 5] was 2.8 µM and the “SI (bioactivity selective index)” value [2] was greater than 11.9.
For `CCC(O)c1nc(-c2nccs2)sc1CC(C)C` (centres unmarked) [Compound C282-2], the CC50 at 72 h [3] was greater than 100 µM, the IC50 [2, 5] was 2.8 µM and the “SI (bioactivity selective index)” value [2] was greater than 35.7.
Work on `CC(C)Cc1sc(-c2nccs2)nc1C(N)=O` [Compound C267] yielded a CC50 [1] greater than 100 µM and an IC50 [2, 4] of 4.9 µM.
Work on `O=C(O)c1nc(-c2nccs2)sc1Cc1ccccc1` [Compound C302] yielded a CC50 [1] of 67.5 µM and an IC50 [2, 4] of 25.7 µM.
For `CCC(=O)c1nc(-c2nccs2)sc1CC(C)C` [Compound C280-4], the CC50 [1] was greater than 100 µM and the IC50 [2, 4] was 8.9 µM.
With `CCOC(=O)/C=C/c1nc(-c2nccs2)sc1CC(C)C` [Compound C322-2] the CC50 [1] was greater than 100 µM and the IC50 [2, 4] was 9.8 µM.
`CCOC(=O)CCc1nc(-c2nccs2)sc1CC(C)C` [Compound C324-5] gave a CC50 [1] greater than 100 µM and an IC50 [2, 4] of 36.6 µM.
With `Cc1cnc(-c2nc(C(=O)NCc3ccc(F)cc3)c(CC(C)C)s2)s1` [Compound W28MF] the CC50 at 72 h [3] was greater than 100 µM, the IC50 [2, 5] was 0.8 µM and the “SI (bioactivity selective index)” value [2] was greater than 125.
With `CC(C)Cc1sc(-c2nccs2)nc1C(=O)NCc1ccc(F)cc1` [Compound W28F] the CC50 at 72 h [3] was 36.9 µM, the IC50 [2, 5] was 7.5 µM and the “SI (bioactivity selective index)” value [2] was 4.9.
With `NC(=O)c1ncn([C@@H]2O[C@H](CO)[C@@H](O)[C@H]2O)n1` [ribavirin, reference compound] the CC50 at 72 h [3] was 449 µM, the IC50 [2, 5] was 48.3 µM and the “SI (bioactivity selective index)” value [2] was 9.3.
With `CNC(=O)c1nc(-c2nccs2)sc1CC(C)C` [Compound C281] the CC50 [1] was greater than 100 µM and the IC50 [2, 4] was 13.6 µM.
